# Literature values, collected in patent US9493512B2, “Solution phase processes for the manufacture of macrocyclic depsipeptides and new intermediates” (NOVARTIS AG, priority 2012, dated 2016).
# pIC50: −log10 of the molar value.
# Target: chymotrypsin (Bos taurus, UniProt P00766)
# Conditions: see J. Nat. Prod. 68(9), 1324-7 (2005); read-out: IC50 value, inhibition of chymotrypsin
smiles,measurement,value
CC(=O)N[C@@H](CCC(N)=O)C(=O)N[C@@H]1C(=O)N[C@@H](CC(C)C)C(=O)N[C@H]2CC[C@@H](O)N(C2=O)[C@@H](Cc2ccccc2)C(=O)N(C)[C@@H](Cc2ccc(O)cc2)C(=O)N[C@@H](C(C)C)C(=O)O[C@@H]1C [Nostopeptin (BN920)],pIC50,7.51
